By ED50 is commonly meant the dose that gives a 50% effect, or the effect in half of the subjects. The low end stands for an effect at a small dose, the high end for a need for a large dose. The term % Inhibition denotes the drop in the measured response relative to a control, in per cent.

The text below walks through data of patent US4667032A, “Phenothiazone derivatives and analogs” (Merck Frosst Canada, Inc., priority 1985, dated 1987).

Experiment [1] has as its system asthmatic rats. The experiment can be described thus: Asthmatic Rat Assay (duration of dyspnoea after egg albumin aerosol). As to conditions: for ED50: Rattus norvegicus; for % inhibition (Ed50 column): p.o. Type of experiment: in vivo. An excerpt:
Rats were obtained from an inbred line of asthmatic rats. Both female and male rats from 200 to 300 g were used.
Egg albumin (EA), grade V, crystallized and lyophilized, was obtained from Sigma Chemical Co., St. Louis. Bordetella pertussis vaccine, containing 30×10^9 killed bacteria per ml was obtained from the Institut Armand-Frappier, Laval des Rapides, Quebec. Aluminum hydroxide was obtained from the Regis Chemical Company, Chicago.
The challenge and subsequent respiratory recordings were carried out in a clear plastic box with internal dimensions 10×6×4 inches. The top of the box was removable; in use, it was held firmly in place by four clamps and an airtight seal was maintained by a soft rubber gasket. […] A Fleisch No. 0000 pneumotachograph was inserted into one end of the box and coupled to a Grass volumetric pressure transducer (PT5-A) which was then connected to a Beckman Type T Dynograph through appropriate couplers. While aerosolizing the antigen, the outlets were open and the pneumotachograph was isolated from the chamber. The outlets were closed and the pneumotachograph and the chamber were connected during the recording or the respiratory patterns. For challenge, 2 ml of a 3% solution of antigen in saline was placed into each nebulizer and the aerosol was generated with air from a small Potter diaphragm pump operating at 10 psi and a flow of 8 liters/minute.
Rats were sensitized by injecting (s.c.) 1 ml of a suspension containing 1 mg EA and 200 mg aluminum hydroxide in saline. Simultaneously, they received an injection (i.p.) of 0.5 ml of B. pertussis vaccine. They were used between days 14 and 18 postsensitization. In order to eliminate the serotonin component of the response, rats were pretreated intravenously 5 minutes prior to aerosol challenge with […] methylserzide. Rats were then exposed to an aerosol of 3% EA in saline for exactly 1 minute, then their respiratory profiles were recorded for a further 25-30 minutes. The duration of continuous dyspnoea was measured from the respiratory recordings.
Compounds were generally administered either intraperitoneally 1 hour prior to challenge or orally 11/2 hours prior to challenge. They were either dissolved in dimethylsulfoxide or suspended in 0.1% methocel and 0.5% Tween 80. The volume injected has 2 ml/kg (intraperitoneally) or 10 ml/kg (orally). Prior to oral treatment rats were starved overnight. Their activity was determined in terms of their ability to decrease the duration of symptoms of dyspnoea in comparison with a group of vehicle-treated controls. Usually, a compound was evaluated at a series of doses and an ED50 was determined. This was defined as the dose (mg/kg) which would inhibit the duration of symptoms by 50%.

Experiment [2] has as its system tracheal chain of sensitized guinea pigs. The experiment in a line: Antigen Challenge 'in vitro' Assay (egg albumin contraction of sensitized guinea pig tracheal chain). As to conditions: 10 μg (μg/ml). The protocol: Male guinea pigs weighing 300-350 g were sensitized by injecting (I.P.) 0.5 ml of a suspension containing 0.4 mg of egg albumin (Ovalbumin, Grade V, Sigma Chemical Co.) and 4.0 g aluminum hydroxide in 19.6 ml of saline. Two weeks were permitted for sensitization to occur.
Three sensitized guinea pigs were stunned and exsanguinated. The tracheas were removed, freed of adhering tissue and divided longitudinally by cutting through the cartilaginous tissue directly opposite the muscle insertion. Each opened trachea was then transected between every second cartilage. Four of the cut sections were tied together, end to end, in a series with No. 7 silk thread ensuring that the tracheal muscles were all in the same vertical plane. Thus, each chain consisted of tissue from three different animals.
The chain so formed was then suspended under 1 g of tension (by silk ties at each end) in a 20 ml organ bath containing 10 ml of modified* Krebs-Henseleit buffer solution gassed with 95% O2 and 5% CO2 at 37° C. Mepyramine (0.55 μg/ml) and indomethacin (2.67 μg/ml) were added to the buffer to avoid the contribution of histamine receptors and cyclooxygenase products to the contraction. To record responses one end of the tracheal chain was attached to a Gould-Statham UC-2 force displacement transducer which was connected to a Beckman Type R-dynograph.The preparations were allowed to equilibrate for one hour during which time the tissues were automatically washed (10 ml volume displacement) every 6 minutes.
After the equilibration period the tissues were primed with methacholine (3 μg/ml; 1.5×10^-5 M), washed and allowed to recover to baseline. The tissues were treated again with a second dose of methacholine, washed, allowed to return to baseline and washed for an additional hour.
Two chains were used as a control. These were incubated in a concentration of egg albumin sufficient to induce an average contraction of 50-80% of the methacholine response.
Each compound to be tested was added to two other baths (at a final concentration in each bath of 10 μg/ml) 15 minutes prior to challenging the fresh chains with egg albumin.
The response of the challenged tissue was expressed as a percentage of the methacholine maximum. The % inhibition for each compound was then calculated. Compounds which at 10 μg/ml (final conc.) inhibited the egg albumin response by 50% or more were retested at a lower concentration.

The subject of experiment [3] is Mouse peritoneal macrophages. The experiment in a line: Mouse Macrophage Assay (leukotriene C4 / PGE2 / 6-keto PGF1α formation, zymosan stimulated). Format: cell-based. Conditions: at 0.05 mg/ml, read-out: Macrophage, % at stated concentration. The procedure:
Mouse peritoneal macrophages were treated sequentially with arachidonic acid (labelled with tritium); the compound being evaluated as an inhibitor, and a stimulator (zymosan). Metabolites derived from arachidonic acid PGE2 6-keto PH-F1α and leukotriene C4) were separated from the incubation medium by extraction and chromatography, and then quantitated by determining the amount of radioactivity (cpm) associated with each of them. […] (This protocol is identical to that described in the reference except that the radioactivity herein associated with the LTC4 was determined by counting an aliquot of the final aqueous solution directly rather than chromatographing it first).
Reference: Humes, J. L. et al., J. Biol. Chem. 257, 1591-4, (1982).

Experiment [4] relates to tracheal chain of sensitized guinea pigs. The experiment can be described thus: Antigen Challenge 'in vitro' Assay (egg albumin contraction of sensitized guinea pig tracheal chain). Conditions: Table 4.
The subject of experiment [5] is rat paw, Brewer's yeast hyperalgesia. The experiment can be described thus: Brewer's Yeast Hyperalgesia Assay. Format: in vivo, Female Sprague-Dawley rats. Conditions: for Vocalization Threshold: mean, n = 10. The protocol:
The standard method* for yeast hyperalgesia was used. Female Sprague-Dawleyrats, […] were fasted overnight. A 5% solution (volume 0.1 ml) of Brewer's yeast was injected into the rat paw. The compound was homogenized in aqueous vehicle and given orally 2 hours after yeast. Vocalization thresholds were recorded 1 hours after drug (3 hours after yeast).
^a mmHg: mean ± S.E.M. n = 10

In experiment [6] the test system is rat paw, PAF-induced hyperalgesia. The experiment can be described thus: PAF-Induced Hyperalgesia Assay. Format: in vivo, Female Sprague-Dawley rats. As to conditions: for Vocalization Threshold: 3 hr after PAF, Mean ± S.E.M., n = 10. The procedure: Female Sprague-Dawley rats, 35-40 g were fasted overnight. Platelet activating factor, PAF, (L-lecithin B-acetyl O-alkyl) 1 μg/0.1 ml was given by subplantar injection in the rat paw. The compounds to be evaluated were homogenized in Aqueous Vehicle (0.9% benzyl alcohol, 0.5% Tween 80 and 0.4% methylcellulose) and administered orally in a volume of 0.1 ml, 30 minutes prior to PAF.
Animals were tested 1, 2, 3 and 4 hours after PAF administration. The vocalization threshold, defined as the pressure (mmHg) needed to evoke a squeak response, was recorded for both the injected and contralateral paw. No animal was subjected to pressure greater than 60 mmHg. Hyperalgesia is defined as a decrease in vocalization threshold as compared to a normal paw. Percent inhibition of hyperalgesia was calculated as the proportion of animals with vocalization thresholds greater than 200% of controls.
^a mmHg Mean ± S.E.M., n = 10 Reading taken 3 hr after injection o
PAF, (3.5 hr. after administration of compound).

For the compound `COc1ccc2nc3cc(OC)c(=O)c(Br)c-3sc2c1` [D], the ED50 in experiment [1] (po) turned out to be 1 mg/kg.
On to `O=C1C=CC2=Nc3ccccc3S(=O)(=O)C2=C1O` [E], for which the “% inhibition (Ed50 column)” value in experiment [1] (at 1.5 mg/kg) amounted to 37%.
Consider `O=c1ccc2nc3ccccc3sc-2c1Cl` [drawing 40], for which the ED50 in experiment [1] (ip) amounted to 0.5 mg/kg.
For “4-Chloro-2,7-dimethyl-3H-phenothiazin-3-one [Example 5]”, the “In Vitro Antigen Challenge Test % Inhibition” value in experiment [2] came to 45%.
Consider `Cc1cc2nc3ccc(N(C)C)cc3sc-2cc1=N`, for which the inhibition at 50 µg/mL in experiment [3] was 10%. Moreover, the “In Vitro Antigen Challenge Test % Inhibition” value in experiment [4] (10 mg (mg/ml)) is 24%.
As to “7-Fluoro-3H-phenothiazin-3-oone [Example 11]”, in experiment [4] (3 mg (mg/ml)), the “In Vitro Antigen Challenge Test % Inhibition” value was found to be 23%.
The compound `O=c1ccc2nc3ccccc3sc-2c1Cl` [B] gave an ED50 in experiment [1] (po) of 1.5 mg/kg.
As for “4-Chloro-7-methyl-3H-phenothiazin-3-one [Example 7]”, the “In Vitro Antigen Challenge Test % Inhibition” value in experiment [4] (10 mg (mg/ml)) is listed as 37%.
As for `O=c1ccc2nc3ccccc3sc-2c1Cl` [Example 2, 4-Chloro-3H-phenothiazin-3-one], the “% Inhibition” value was 30% in experiment [5] (0.3 mg/kg p.o.); 30% in experiment [5] (1.0 mg/kg p.o.); 60% in experiment [5] (3.0 mg/kg p.o.); 70% in experiment [5] (10.0 mg/kg p.o.); 80% in experiment [5] (30.0 mg/kg p.o.); 40% in experiment [6] (Experiment 1, 0.01 mg/kg p.o.). The “% Inhibition” value is 80% in experiment [6] (Experiment 1, 0.03 mg/kg p.o.); 80% in experiment [6] (Experiment 1, 0.1 mg/kg p.o.); 90% in experiment [6] (Experiment 1, 0.3 mg/kg p.o.); 100% in experiment [6] (Experiment 1, 3.0 mg/kg p.o.); 0% in experiment [6] (Experiment 2, 0.001 mg/kg p.o.); 30% in experiment [6] (Experiment 2, 0.003 mg/kg p.o.). Also, the “% Inhibition” value was 30% in experiment [6] (Experiment 2, 0.01 mg/kg p.o.) and 60% in experiment [6] (Experiment 2, 0.1 mg/kg p.o.). The “Vocalization Threshold” value was found to be 17.6 mmHg in experiment [5] (0.3 mg/kg p.o.); 19.4 mmHg in experiment [5] (1.0 mg/kg p.o.); 30.0 mmHg in experiment [5] (3.0 mg/kg p.o.); 28.6 mmHg in experiment [5] (10.0 mg/kg p.o.); 32.6 mmHg in experiment [5] (30.0 mg/kg p.o.); 28.2 ± 5.2 mmHg in experiment [6] (Experiment 1, 0.01 mg/kg p.o.). For the same compound, the “Vocalization Threshold” value is given as 40.2 ± 5.0 mmHg in experiment [6] (Experiment 1, 0.03 mg/kg p.o.); 37.4 ± 3.9 mmHg in experiment [6] (Experiment 1, 0.1 mg/kg p.o.); 45.4 ± 3.7 mmHg in experiment [6] (Experiment 1, 0.3 mg/kg p.o.); 46.0 ± 3.0 mmHg in experiment [6] (Experiment 1, 3.0 mg/kg p.o.); 10.0 ± 1.6 mmHg in experiment [6] (Experiment 2, 0.001 mg/kg p.o.); 16.4 ± 2.8 mmHg in experiment [6] (Experiment 2, 0.003 mg/kg p.o.). The “Vocalization Threshold” value turned out to be 18.0 ± 2.9 mmHg in experiment [6] (Experiment 2, 0.01 mg/kg p.o.) and 29.6 ± 4.4 mmHg in experiment [6] (Experiment 2, 0.1 mg/kg p.o.).
For “7-Fluoro-2-methoxy-3H-phenothiazin-3-one [Example 13]”, the “In Vitro Antigen Challenge Test % Inhibition” value in experiment [4] (3 mg (mg/ml)) is reported as 54%.
Consider `O=c1cc2sc3ccccc3nc-2c2ccccc12` [F], for which the “% inhibition (Ed50 column)” value in experiment [1] (at 5 mg/kg) worked out at 36%.
Turning to “4-Chloro-2,7-dimethoxy-3H-phenothiazin-3-one [Example 3]”, the “In Vitro Antigen Challenge Test % Inhibition” value in experiment [2] was determined as 25%.
In experiment [1] (ip), `O=c1ccc2nc3ccccc3sc-2c1` [C] came in with an ED50 of about 5 mg/kg.
